According to PMC6091977, “The permeation mechanism of organic cations through a CNG mimic channel” (PLoS Computational Biology, 2018):

What was measured:
[1] = target: T1, CNGA1 channel (bovine CNGA1, bCNGA1) (Bos taurus, UniProt Q00194); assay: cell-based
T1 sequence (Q00194 1-690): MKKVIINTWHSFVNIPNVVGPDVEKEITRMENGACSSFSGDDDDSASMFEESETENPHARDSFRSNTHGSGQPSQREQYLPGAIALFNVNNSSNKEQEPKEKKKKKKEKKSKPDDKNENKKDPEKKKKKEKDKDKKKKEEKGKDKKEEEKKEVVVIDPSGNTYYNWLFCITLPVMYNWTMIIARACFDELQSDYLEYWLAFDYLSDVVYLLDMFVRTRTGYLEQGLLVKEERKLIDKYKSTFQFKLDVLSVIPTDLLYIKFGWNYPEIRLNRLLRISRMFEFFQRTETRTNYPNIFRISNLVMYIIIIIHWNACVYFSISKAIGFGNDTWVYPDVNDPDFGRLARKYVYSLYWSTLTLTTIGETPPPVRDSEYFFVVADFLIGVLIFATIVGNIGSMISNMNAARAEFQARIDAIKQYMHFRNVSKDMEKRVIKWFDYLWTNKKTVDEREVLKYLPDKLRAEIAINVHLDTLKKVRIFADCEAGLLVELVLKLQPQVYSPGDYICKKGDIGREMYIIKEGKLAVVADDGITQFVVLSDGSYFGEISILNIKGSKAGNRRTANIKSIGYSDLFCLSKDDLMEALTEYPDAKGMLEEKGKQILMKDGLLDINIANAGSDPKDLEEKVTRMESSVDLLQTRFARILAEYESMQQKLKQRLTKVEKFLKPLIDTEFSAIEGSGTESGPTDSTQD

[2] = target: T1, CNGA1 channel (bovine CNGA1, bCNGA1); assay: excised-patch voltage clamp; current activation; type: biochemical; parameters: full-length CNGA1 expressed alone from cRNA in Xenopus laevis oocytes; excised patches; conditions: agonist at 1 mM; DMA as charge carrier; pH 7.4
[3] = target: NaK2CNG-E chimera; assay: crystal structure; sitting drop vapor diffusion at 20°C, 40-44% MPD, 100 mM MES pH 6.5, 25 mM glycine; protein purified in DM with DMA·HCl; space group P222_(1); tetramers AABB and CCDD built by two-fold crystallographic symmetry

Molecule: CNC [DMA, dimethylammonium]
- Kd [1]: 52 mM

Molecule: Nc1nc2c(ncn2[C@@H]2O[C@@H]3COP(=O)(O)O[C@H]3[C@H]2O)c(=O)[nH]1 [cGMP]
- excised-patch voltage clamp; current activation [2]: The cGMP activated current was measured as the difference between the current recorded in the presence

Molecule: NaK2CNG-E chimera
- stoichiometry N [3]: 4
